Target: T1, T-p53C-Y220C (Homo sapiens, UniProt P04637, M133L/N239Y/N268D/V203A/Y220C)
T1 construct: For all other experiments, the DNA coding for residues 94-312 of T-p53C was inserted into a modified pET24a(+) vector; 6xHis tag + B. stearothermophilus dihydrolipoyl acetyltransferase lipoyl domain (aa 1-85) + TEV site (N, cleaved yes); made in house; host or cells: Escherichia coli BL21 (DE3) or C41 (DE3)
Assay: Thermal denaturation using fluorescence (Sypro Orange)
Assay type: binding
Conditions: 10 μM protein
Protocol: This was by an adaption of the classical procedure (e.g. ref A6). Thermal unfolding was monitored by the binding of the dye Sypro Orange (5×) using a Rotor-gene 6000 (Corbett Life Science) at 270 K/h in 25 mM NaPi, 150 mM NaCl and 5 mM DTT, pH 7.2 with a protein concentration of 10 μM.
(§1) Where listed, S.E. is the calculated standard error.
as §1

| SMILES | ΔTm (° C.) (further compounds) | ΔTm (° C.) (further studies on compounds described above) |
| --- | --- | --- |
| CCn1cc(C(=O)OC(C)C(=O)Nc2cc(C)on2)c2ccccc21 (centres unmarked) [PK270] | 0.11 °C |  |
| CCn1c2ccccc2c2cc(CNCCN3CCOCC3)ccc21 [PK208] | 0.35 °C |  |
| CCn1c2ccccc2c2cc(NC(=O)COc3ccc([N+](=O)[O-])nc3)ccc21 [PK163] | 0.27 °C | 0.24 °C |
| CCOC(=O)c1c(C)n(C)c2ccc(O)cc12 [PK241] | 0.2 °C |  |
| CCOC(=O)c1c(C)n(CC)c2cc(Br)c(OC)cc12 [PK248] | 0.21 °C |  |
| CCn1c2ccccc2c2cc(CN3CCCC(C4NC(=O)NC4C)C3)ccc21 (centres unmarked) [PK218] | 0.31 °C |  |
| CCn1cc(C(=O)O)c2ccccc21 [PK242] | 0.16 °C |  |
| [2H]C(=O)OC(CC)C(=O)Nc1cc(C)on1 (centres unmarked) [PK284] | 0.23 °C |  |
| CCn1c2ccccc2c2cc(NC(=O)CO)ccc21 [PK132] | 0.2 °C |  |
| CCn1cc(C(=O)OCC(=O)NC(=O)NCc2ccco2)c2ccccc21 [PK273] | 0.28 °C |  |
| [2H]C(=O)N1CCN(Cc2ccccc2)CC1 [PK285] | 0.2 °C |  |
| [2H]C(=O)OC(C)c1nc(N)nc(N(C)C)n1 (centres unmarked) [PK286] | 0.24 °C |  |
| CCn1c2ccccc2c2cc(NC(=O)CN3CCOCC3)ccc21 [PK128] | 0.24 °C |  |
| CCn1c2ccccc2c2cc(CN(C)c3ccc4nnnn4n3)ccc21 [PK157] | 0.12 °C |  |
| [2H]C(=O)N1CCc2[nH]c3ccccc3c2C1 [PK293] | 0.3741 °C |  |
| CCn1c2ccccc2c2cc(NC(=O)CN3CCC(C(N)=O)CC3)ccc21 [PK151] | 0.14 °C |  |
| CCn1c2ccccc2c2cc(NC(=O)CN3C(=O)NC4(CCCC4)C3=O)ccc21 [PK116] | 0.365 °C |  |
| CCn1cc(C(=O)Nc2cccc(S(=O)(=O)N(C)C)c2)c2ccccc21 [PK272] | 0.44 °C |  |
| CCCn1cc(CCN)c2cc(OCC)ccc21 [PK408] | 0.26 °C |  |
| CCn1c2ccccc2c2cc(NC(=O)COC(=O)CNC(=O)c3ccc([N+](=O)[O-])cc3)ccc21 [PK108] | 0.335 °C |  |
| CCn1cc(C(=O)NCc2cccc(NC(=O)c3ccco3)c2)c2ccccc21 [PK314] | 0.16 °C |  |
| CCn1cc(C(=O)NCc2cccc(S(=O)(=O)N3CCOCC3)c2)c2ccccc21 [PK306] | 0.26 °C |  |

| SMILES | ΔTm (° C.) (further compounds) | ΔTm (° C.) (further studies on compounds described above) |
| --- | --- | --- |
| [2H]C(=O)OCC(=O)NCC(F)(F)F [PK258] | 0.1 °C |  |
| CCOC(=O)/C=C/C(=O)OCC(=O)Nc1ccc2c(c1)c1ccccc1n2CC [PK113] | 0.36 °C |  |
| COc1ccc2c(c1)c(C(=O)NCCc1ccccn1)c(C)n2C1CC1 [PK276] | 0.29 °C |  |
| CCn1c(-c2cn(CC)c3ccccc23)n[nH]c1=S [PK236] | 0.3 °C |  |
| CCn1c2ccccc2c2cc(CNCCSc3nnnn3C)ccc21 [PK390] | 0.41 °C |  |
| [2H]C(=O)OCC(=O)NC(=O)NC1CCCC1 [PK269] | 0.15 °C |  |
| CCn1c2ccccc2c2cc(CNCC(C)O)ccc21 (centres unmarked) [PK391] | 0.66 °C |  |
| [2H]C(=O)Nc1cc(S(=O)(=O)N2CCN(C)CC2)ccc1OC [PK280] | 0.42 °C |  |
| Cn1cc(NN)c2ccccc21 [PK253] | 0.093 °C |  |
| CCn1c2ccccc2c2cc(NC(=O)CN3C(=O)NC4(CCCCC4)C3=O)ccc21 [PK165] | 0.24 °C |  |
| CCn1c2ccccc2c2cc(NC(=O)COC(=O)Cn3nc(C)c([N+](=O)[O-])c3C)ccc21 [PK118] | 0.28 °C |  |
| CCn1c2ccccc2c2cc(CN3CCN(Cc4cc(OC)ccc4O)CC3)ccc21 [PK202] | 0.17 °C |  |
| CCn1cc(C(=O)OC)c2ccccc21 [PK339] | 0.4 °C |  |
| COc1ccc2c(c1)c(C(=O)NC(C)C(C)C)c(C)n2C1CC1 (centres unmarked) [PK277] | 0.34 °C |  |
| [2H]C(=O)N(C)Cc1nc2ccccc2c(=O)[nH]1 [PK315] | 0.29 °C |  |
| [2H]NNS(=O)(=O)c1cccc(C(F)(F)F)c1 [PK255] | 0.26 °C |  |
| CCOC(=O)c1c(C)n(C2CC2)c2ccc(OC(=O)C3COc4ccccc4O3)cc12 (centres unmarked) [PK305] | 0.26 °C |  |
| CCn1c2ccccc2c2cc(CN3CCCN(C)CC3)ccc21 [PK175] | 0.395 °C |  |
| [2H]C(=O)Nc1ccc(OC)c(S(N)(=O)=O)c1 [PK292] | 0.154 °C |  |
| [2H]C(=O)OC(C)C(=O)NC(N)=O (centres unmarked) [PK263] | 0.06 °C |  |
| CCn1cc(C(=O)Nc2c(C)nn(C)c2C)c2ccccc21 [PK313] | 0.28 °C |  |
| [2H]C(=O)OCC(=O)NC(=O)NC [PK268] | 0.31 °C |  |

| SMILES | ΔTm (° C.) (further compounds) | ΔTm (° C.) (further studies on compounds described above) |
| --- | --- | --- |
| CCn1c2ccccc2c2cc(NC(=O)CN(C)CC(=O)Nc3ccc(N4CCOCC4)cc3)ccc21 [PK122] | 0.28 °C |  |
| CCn1cc(C(=O)CN2CCc3ccccc3C2)c2ccccc21 [PK212] | 0.387 °C |  |
| CCn1c2ccccc2c2cc(CN3CCN(Cc4ccccc4C(F)(F)F)CC3)ccc21 [PK197] | 0.08 °C |  |
| CCn1cc(C(=O)OCC2CNC(=O)O2)c2ccccc21 (centres unmarked) [PK311] | 0.15 °C |  |
| CCn1cc(C2CC3CN(C)C(=O)C34CCCN24)c2ccccc21 (centres unmarked) [PK222] | 0.14 °C |  |
| CCn1c2ccccc2c2cc(CN3CCN(C)CC3)ccc21 [PK177] | 0.2 °C |  |
| CCn1c2ccccc2c2cc(NC(=O)C(C)OC(=O)c3n[nH]c(=O)c4ccccc34)ccc21 (centres unmarked) [PK133] | 0.145 °C |  |
| [2H]C(=O)N1CCN(c2ncccn2)CC1 [PK283] | 0.19 °C |  |
| Cc1c(C=O)c2ccccc2n1C [PK243] | 0.2 °C |  |
| CCOc1ccc2c(c1)c(CCN)cn2CC [PK407] | 0.29 °C |  |
| CCn1c2ccccc2c2cc(CN3CCc4ccccc4C3)ccc21 [PK176] | 0.455 °C |  |
| [2H]C(=O)OCC(=O)NC(=O)NCC=C [PK256] | 0.1 °C |  |
| CNCc1ccc2c(c1)c1ccccc1n2CCBr [PK232] | 0.39 °C |  |
| CCn1cc(C(=O)Nc2ccc(OC)cc2)c2ccccc21 [PK237] | 0.2 °C |  |
| [2H]NNS(=O)(=O)c1ccc(C(=O)OC)cc1 [PK281] | 0.43 °C |  |
| CCn1cc(C(=O)Nc2ccn(C)n2)c2ccccc21 [PK318] | 0.12 °C |  |
| CCOC(=O)c1c(C)n(C)c2ccc(OCCN(C)C)cc12 [PK250] | 0.14 °C |  |
| COc1ccc2c(c1)c(C(=O)OCC(=O)Nc1cc(F)ccc1F)c(C)n2C1CC1 [PK310] | 0.36 °C |  |
| CCn1c(C)c(C(=O)NCCN(C)C)c2cc(OC)ccc21 [PK402] | 0.19 °C |  |
| CCn1cc(C=C(C#N)C#N)c2ccccc21 [PK238] | 0.2 °C |  |

Reference: patent publication US20110059953A1, “COMPOUNDS FOR USE IN STABILIZING P53 MUTANTS” (priority 2008, published 2011)
